Assay [1] relates to graft-versus-host disease model CB6F1 mice. Kind of assay: Lymphocyte proliferation inhibitory effect using graft-versus-host disease model animals (splenomegaly formation). The conditions noted are these: Mus musculus, 240 h, single dose 100 mg/kg, oral, twice a day for 10 days, GVHD model CB6F1 mice, read-out: Inhibition rate (%) (splenomegaly formation). It counts as in vivo.

Assay [2] deals with PIM3 transgenic cells (Ba/F3) (Homo sapiens, UniProt Q86V86). The assay is described as follows: Proliferation inhibitory effect on PIM3 transgenic cells. The assay is classed as cell-based, mouse. The following applies: proliferation inhibition, 72 hours, Cell Counting Kit-8, read-out: PIM3 IC50. The text has this: (§1) Human PIM1, 2, and 3 genes were inserted into the multi-cloning sites of retrovirus expression vectors pMYs-IRES-GFP, respectively, to prepare gene transfer vectors. Then, each gene transfer vector was introduced into packaging cells PLAT-E derived from a human fetal kidney cell line in the logarithmic growth phase, using a transfection reagent (FuGENE6, Promega Corporation). Since the culture supernatant of PLAT-E after gene transfer contained virus particles for gene transfer, the culture supernatant was collected and used as a medium for gene transfer. The medium for gene transfer was added to a plate coated with RetroNectin, and the plate was incubated to attach the virus particles to the plate. Then, a mouse pro-B cell line Ba/F3 in the logarithmic growth phase was seeded on the plate and infected with the virus to prepare PIM1, 2, or 3 transgenic cells that proliferate in a PIM 1, 2, or 3-dependent manner. The expression of PIM1, 2, or 3 protein in each cell was confirmed by Western blotting.
(§2) Each test substance was prepared to 10 mM with dimethylsulfoxide (DMSO), and diluted with DMSO so as to have concentrations of 3000, 1000, 300, 100, 30, 10, 3, and 1 μM. Moreover, each dilution was further diluted 10-fold with distilled water to prepare a test substance solution.
(§3) PIM1, 2, 3-expressing cells were seeded on a 96-well plate, and each test substance solution prepared the next day was added such that final concentrations were 10000, 3000, 1000, 300, 100, 30, 10, 3, and 1 nM. 72 hours after the addition, 10 μL of Cell Counting Kit-8 (DOJINDO LABORATORIES) was added to each well. After incubation for 1 to 4 hours, absorbance OD450 at 450 nm was measured. In addition, absorption OD650 at 650 nm as a reference wavelength was measured.
(§4) OD450-OD650 for each condition was calculated, and then the inhibition rates when OD450-OD650 of negative control (DMSO only) and OD450-OD650 of Blank (without cells) were set to 0% and 100%, respectively, were calculated. Then, non-linear regression analysis was performed for logarithmic dose and inhibition rate using a two-parameter logistic model to estimate IC50 values.
(§5) For the compounds with the following Example numbers, in addition to the above proliferation inhibitory effect on PIM1 transgenic cells, the proliferation inhibitory effect on PIM2 transgenic cells and the proliferation inhibitory effect on PIM3 transgenic cells were calculated as IC50.
(In general: Tetrazolium assays rely on reduction of a dye to a coloured formazan, in cell work by metabolically active cells.)

Assay [3] deals with PIM1 transgenic cells (Ba/F3) (Homo sapiens, UniProt P11309). Kind of assay: Proliferation inhibitory effect on PIM1 transgenic cells. The following applies: proliferation inhibition, 72 hours, Cell Counting Kit-8, read-out: PIM1 IC50. The assay is classed as cell-based, mouse. The essentials:
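Mouse Ba/F3 pro-B cells were retrovirally transduced with human PIM1 so that their proliferation depends on PIM1. Cells were treated with compound at 1–10000 nM final for 72 h, then read by CCK-8 (OD450−OD650). Inhibition was set against DMSO (0%) and no-cell blank (100%), and IC50 was obtained by two-parameter logistic regression.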

For assay [4], the target named is T1, PIM1 serine/threonine kinase (Homo sapiens, UniProt P11309).
T1 construct: purchased Carna Bioscience, Inc
Kind of assay: PIM1 serine/threonine kinase inhibitory effect. The assay is classed as biochemical. The following applies: PIM1 serine/threonine kinase activity; ATP 40 μM; 30° C., 30 minutes. The essentials: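 Recombinant PIM1 (0.15 μg/ml final) with 0.5 μM biotinylated substrate and 40 μM ATP in pH 7.0 HEPES/MgCl2 buffer, 30 min at 30° C. Compound range was 0.01–10000 nM final, n=2. HTRF detection with streptavidin-XL665 and anti-phospho antibody-cryptate, 1 h; IC50 from non-linear regression of the 665/620 ratio.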

The target in assay [5] is PIM2 transgenic cells (Ba/F3) (Homo sapiens, UniProt Q9P1W9). The assay is described as follows: Proliferation inhibitory effect on PIM2 transgenic cells. The assay is classed as cell-based, mouse. The conditions noted are these: proliferation inhibition, 72 hours, Cell Counting Kit-8, read-out: PIM2 IC50.
From the text: as §1, §2, §3, §4, §5

In assay [6] the target is T2, PIM3 serine/threonine kinase (Homo sapiens, UniProt Q86V86).
T2 construct: purchased Carna Bioscience, Inc
Kind of assay: PIM3 serine/threonine kinase inhibitory effect. The assay is classed as biochemical. The conditions noted are these: PIM3 serine/threonine kinase activity; ATP 10 μM; 30° C., 30 minutes. The procedure:
(§6) Each test substance was prepared to 10 mM with dimethylsulfoxide (DMSO), and further diluted with DMSO so as to have concentrations of 1000, 300, 100, 30, 10, 3, 1, 0.3, 0.1, 0.03, 0.01, and 0.001 μM. Moreover, each dilution was further diluted 33.3-fold with an assay buffer to prepare a test substance solution. The composition of the assay buffer was 50 mM HEPES (pH 7.0), 0.02% NaN3, 0.01% Bovine Serum Albumin, 0.1 mM Orthovanadate, 1 mM Dithiothreitol, and 5 mM MgCl2.
(§7) 5 μL of each test substance solution was added to 384-well plates (n=2), and then 2.5 μL of a substrate solution (substrate 3-biotin (Cisbio Bioassays SAS), final concentration in the reaction solution: 0.5 μM) and 2.5 μL of an ATP solution (in the cases of PIM1, 2, 3, the final concentrations in the reaction solutions were 40, 2, and 10 μM, respectively) were added, 5 μL of each of PIM1, 2, 3 serine/threonine kinase solutions (Carna Bioscience, Inc., the final concentrations in the reaction solutions were 0.15, 1.6, and 0.25 μg/ml, respectively) was finally added, and the mixture was reacted at 30° C. for 30 minutes. The test substance concentrations in the reaction solutions are 10000, 3000, 1000, 300, 100, 30, 10, 3, 1, 0.3, 0.1, and 0.01 nM.
(§8) Thereafter, 15 μL of each detection solution (62.5 nM Streptavidin-XL665 (Cisbio Bioassays SAS), […] STK antibody-Cryptate (Cisbio Bioassays SAS), 50 mM HEPES (pH 7.0), 0.8 M KF, 0.1% Bovine Serum Albumin, 20 mM ethylenediaminetetraacetic acid) was added to each well. After stirring, the mixture was reacted at 30° C. for 1 hour. Absorbance (OD620, OD665) at 620 and 665 nm was measured with a microplate reader (SpectraMax M5e, Molecular Devices, LLC).
(§9) Non-linear regression analysis was performed by an SAS system (SAS Institute Inc.) using the ratio (OD665/OD620) of the measured absorbance to calculate a test substance concentration (IC50) that inhibits PIM1 serine/threonine kinase activity by 50%.
(§10) For the compounds with the following Example numbers, in addition to the above PIM1 serine/threonine kinase activity (IC50), test substance concentrations (IC50) that inhibit PIM2 serine/threonine kinase activity and PIM3 serine/threonine kinase activity by 50% were calculated.

For assay [7], the target named is T3, PIM2 serine/threonine kinase (Homo sapiens, UniProt Q9P1W9).
T3 construct: purchased Carna Bioscience, Inc
Kind of assay: PIM2 serine/threonine kinase inhibitory effect. It counts as biochemical. The conditions noted are these: PIM2 serine/threonine kinase activity; ATP 2 μM; 30° C., 30 minutes. The protocol: as §6, §7, §8, §9, §10

Assay [8] has as its system graft-versus-host disease model CB6F1 mice. The assay is described as follows: Lymphocyte proliferation inhibitory effect using graft-versus-host disease model animals (splenomegaly formation). The assay is classed as in vivo. The conditions noted are these: Mus musculus, 240 h, oral, twice a day for 10 days, GVHD model CB6F1 mice, read-out: Inhibition rate (%) (splenomegaly formation); for inhibition in vivo at 3 mg/kg: single dose 3 mg/kg; for inhibition in vivo at 10 mg/kg: single dose 10 mg/kg. The protocol: BALB/c mice (8-week-aged female) were euthanized, and then the spleen was removed from each mouse. Then, hemolysis treatment was performed to isolate spleen cells. The obtained spleen cells were intravenously transplanted into CB6F1 mice (8-week-aged female), which are C57BL/6 and BALB/c F1 mice, to prepare a model, and splenomegaly was induced. For transplantation, spleen cells for 1.2 BALB/c mouse were used for one CB6F1 mouse.
Each test substance shown in Table 64 was weighed and dissolved in a 0.5% methyl cellulose solution, thereby preparing test substance solutions of 0.3 to 10 mg/mL.
A vehicle (0.5% methyl cellulose solution) or test substance was orally administered to each CB6F1 mouse after transplantation at a dose of 3 to 50 mg/kg in terms of body weight twice a day for 10 days from the day after transplantation. The mouse was euthanized on the 11th day from the start of administration, then the spleen was removed therefrom, and the wet weight of the spleen was measured. For each of CB6F1 mice that had not undergone transplantation as a control group, the wet weight of the spleen was also measured.
The splenomegaly formation inhibition rate when the spleen weights of the mice to which the vehicle was administered after transplantation and the mice on which transplantation had not been performed were 0% and 100%, respectively, was calculated.

Where a name gives a salt, the structure may show the parent alone.

T1 sequence (P11309 whole entry): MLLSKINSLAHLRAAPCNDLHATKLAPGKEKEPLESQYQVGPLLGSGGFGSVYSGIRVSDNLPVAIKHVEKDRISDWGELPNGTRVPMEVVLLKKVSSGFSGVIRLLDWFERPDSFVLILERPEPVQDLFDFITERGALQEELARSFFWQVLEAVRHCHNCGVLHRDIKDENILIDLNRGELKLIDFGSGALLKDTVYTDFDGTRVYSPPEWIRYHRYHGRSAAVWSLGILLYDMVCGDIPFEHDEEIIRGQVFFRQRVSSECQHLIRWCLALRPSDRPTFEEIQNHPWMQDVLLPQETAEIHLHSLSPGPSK
Sequence of PIM1 transgenic cells (Ba/F3) (P11309 whole entry, stated change not applied): as the sequence (P11309 whole entry) above
Sequence of PIM2 transgenic cells (Ba/F3) (Q9P1W9 whole entry, change not shown): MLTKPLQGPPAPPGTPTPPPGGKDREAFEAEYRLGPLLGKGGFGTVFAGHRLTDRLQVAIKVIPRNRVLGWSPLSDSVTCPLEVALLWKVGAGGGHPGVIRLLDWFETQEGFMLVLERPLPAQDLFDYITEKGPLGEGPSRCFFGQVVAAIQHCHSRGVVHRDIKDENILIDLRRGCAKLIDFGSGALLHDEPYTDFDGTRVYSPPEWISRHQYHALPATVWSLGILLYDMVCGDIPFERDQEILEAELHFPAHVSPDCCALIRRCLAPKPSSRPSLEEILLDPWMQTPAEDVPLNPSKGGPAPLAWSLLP
T3 sequence (Q9P1W9 whole entry): as the sequence (Q9P1W9 whole entry, change not shown) above

The term IC50 denotes the concentration at which inhibition is half-maximal. With `C[C@H](Nc1cc(-c2n[nH]c(=O)o2)ccc1C(F)(F)F)C1CCNCC1` [Example 58, 5-[3-{[(1S)-1-(piperidin-4-yl)ethyl]amino}-4-(trifluoromethyl)phenyl]-1,3,4-oxadiazol-2(3H)-one hydrochloride], in assay [1], the inhibition in vivo at 100 mg/kg turned out to be 39.8%. Moreover, the GI50 in assay [2] turned out to be 570 nM; in assay [3] it was 33 nM; in assay [5] it was 3600 nM. Further, the values for the IC50 in assay [4], in assay [6] and in assay [7] were 2 nM, 16 nM and 18 nM, respectively. Moreover, in assay [8] (single dose 25 mg/kg), the inhibition in vivo at 25 mg/kg came out at 19%. Further, the inhibition in vivo at 50 mg/kg in assay [8] (single dose 50 mg/kg) came to 41.6%.

Turning to `C[C@H](Nc1cc(-c2n[nH]c(=O)o2)cc(F)c1OC(F)(F)F)[C@H]1CCNC[C@H]1F` [Example 224, 5-[3-fluoro-5-({(1S)-1-[(3S,4R)-3-fluoropiperidin-4-yl]ethyl}amino)-4-(trifluoromethoxy)phenyl]-1,3,4-oxadiazol-2(3H)-one], the GI50 worked out at 35 nM in assay [2], 7.1 nM in assay [3] and 510 nM in assay [5]. Further, the IC50 in assay [4] stood at 0.8 nM. In assay [8], the inhibition in vivo at 3 mg/kg amounted to 22.8%. The inhibition in vivo at 10 mg/kg in assay [8] worked out at 39.1%.

Take `C[C@H](Nc1cc(-c2n[nH]c(=O)o2)cc(F)c1C(F)(F)F)[C@H]1CCNC[C@H]1F` [Example 223, 5-[3-fluoro-5-({(1S)-1-[(3S,4R)-3-fluoropiperidin-4-yl]ethyl}amino)-4-(trifluoromethyl)phenyl]-1,3,4-oxadiazol-2(3H)-one hydrochloride]: the values for the GI50 in assay [2], in assay [3] and in assay [5] were 59 nM, 11 nM and 290 nM, respectively. The molecule further came in with an IC50 in assay [4] of 1.6 nM. Further, in assay [8], the inhibition in vivo at 3 mg/kg is 34.1%. Further, in assay [8], the inhibition in vivo at 10 mg/kg came to 36.8%.

As to `CC[C@@H]1CNCC[C@@H]1[C@H](C)Nc1cc(-c2n[nH]c(=O)o2)cc(F)c1C(F)(F)F` [Example 225, 5-[3-({(1S)-1-[(3S,4S)-3-ethylpiperidin-4-yl]ethyl}amino)-5-fluoro-4-(trifluoromethyl)phenyl]-1,3,4-oxadiazol-2(3H)-one], the values for the GI50 in assay [2], in assay [3] and in assay [5] were 51 nM, 7.6 nM and 390 nM, respectively. In assay [4], the IC50 amounted to 1.1 nM. For the same molecule, in assay [8], the inhibition in vivo at 3 mg/kg came out at 18.9%. Moreover, the inhibition in vivo at 10 mg/kg in assay [8] amounted to 32.3%.

Turning to `CC(Nc1cc(-c2n[nH]c(=O)o2)ccc1C(F)(F)F)[C@H]1CC[C@H](N)CC1` (some centres unmarked) [Example 63, 5-[3-({1-[(1r,4r)-4-aminocyclohexyl]ethyl}amino)-4-(trifluoromethyl)phenyl]-1,3,4-oxadiazol-2(3H)-one hydrochloride], the GI50 in assay [3] came out at 28 nM. Moreover, the values for the IC50 in assay [4], in assay [6] and in assay [7] were 0.7 nM, 5 nM and 13 nM, respectively.

As to `N[C@H]1CC[C@H](CNc2cc(-c3n[nH]c(=O)o3)cc(F)c2C(F)(F)F)CC1` [Example 69, 5-[3-({[(1r,4r)-4-aminocyclohexyl]methyl}amino)-5-fluoro-4-(trifluoromethyl)phenyl]-1,3,4-oxadiazol-2(3H)-one hydrochloride], the GI50 in assay [3] came to 37 nM. Also, the IC50 in assay [4] is 1.1 nM; in assay [6], 4 nM; in assay [7], 7 nM.

Take `C[C@@H]1CNCC[C@@H]1[C@H](C)Nc1cc(-c2n[nH]c(=O)o2)cc(F)c1OC(F)(F)F` [Example 219, 5-[3-fluoro-5-({(1S)-1-[(3S,4S)-3-methylpiperidin-4-yl]ethyl}amino)-4-(trifluoromethoxy)phenyl]-1,3,4-oxadiazol-2(3H)-one]: the values for the GI50 in assay [2], in assay [3] and in assay [5] were 40 nM, 11 nM and 1100 nM, respectively. In assay [4], the IC50 turned out to be 1.8 nM. Moreover, the inhibition in vivo at 3 mg/kg in assay [8] is 27.7%. For the same molecule, the inhibition in vivo at 10 mg/kg in assay [8] is 33.8%.

The values are drawn from patent US20220024921A1, “1,3,4-OXADIAZOLONE COMPOUND AND PHARMACEUTICAL” (NIPPON SHINYAKU CO., LTD., priority 2018, published 2022).
